Experimental data published in ChEMBL document CHEMBL1150252, “Heteroaromatic ester inhibitors of hepatitis A virus 3C proteinase: Evaluation of mode of action” (Bioorg Med Chem, 2008).
Where “and” joins values, the source holds several entries; their conditions need not be identical. Identical values can stand only once.

Columns and labels:
[1] = test system: Hepatovirus A; assay: Inhibition of hepatitis A virus 3C proteinase at 10 uM by microplate assay
[2] = test system: Hepatovirus A; assay: Inhibition of hepatitis A virus 3C proteinase at 1 uM by microplate assay
[3] = Inhibition of hepatitis A virus 3C proteinase by microplate assay; set-up: species or system Hepatovirus A
[4] = test system: Hepatovirus A; assay: Inhibition of hepatitis A virus 3C proteinase at 0.25 uM by microplate assay
[5] = test system: Hepatovirus A; assay: Activity of hepatitis A virus 3C proteinase assessed as compound hydrolysis by HPLC
[6] = test system: Hepatovirus A; assay: Ratio of Kcat to Km of hepatitis A virus 3C proteinase
[7] = test system: O=C(Oc1cncc(Br)c1)c1ccco1; assay: Activity of SARS coronavirus 3CL proteinase assessed as compound hydrolysis by HPLC; settings: Severe acute respiratory syndrome-related coronavirus
[8] = test system: O=C(Oc1cncc(Br)c1)c1ccco1; assay: Ratio of Kcat to Km of SARS coronavirus 3CL proteinase; settings: Severe acute respiratory syndrome-related coronavirus
[9] = target: Replicase polyprotein 1a (Severe acute respiratory syndrome-related coronavirus, UniProt P0C6U8); assay: Inhibition of SARS coronavirus 3CL proteinase

| Compound | inhibition [1] | inhibition [2] [%] | also measured |
| --- | --- | --- | --- |
| Cc1ccc(OC(=O)c2cccs2)cn1 | 23% | – | – |
| O=C(Oc1cncc(Cl)c1)c1cccc2ccccc12 | > 90% | 30 | – |
| O=C(Oc1ccccn1)c1cccs1 | 89% | 8 | – |
| Cc1cccc(OC(=O)c2cccs2)n1 | 91% | < 10 | – |
| O=C(Nc1ccc(Cl)cn1)c1cccs1 | < 10% | – | – |
| Cc1ccc(OC(=O)c2cccs2)c([N+](=O)[O-])n1 | 14% | – | – |
| O=C(Cc1cccnc1)c1cccs1 | 10% | – | – |
| O=C(Oc1cncc(Br)c1)c1ccco1 | – | > 90 | IC50 [3]: 53 nM; inhibition [4]: 87%; Km [5]: 0.12 µM; kcat [5]: 119 ×10⁻⁵ /s; kcat/Km [6]: 10 ×10³ /M/s |
| O=C(Oc1cncc(Cl)c1)c1ccc(Br)o1 | > 90% | – | IC50 [3]: 1200 nM; inhibition [4]: 54% |
| Cc1ncccc1OC(=O)c1cccs1 | < 10% | < 10 | – |
| O=C(Oc1cncc(Cl)c1)c1ccc(Cl)cc1O | > 90% | 59 | inhibition [4]: 10% |
| O=C(Nc1cccnc1Cl)c1cccs1 | < 10% | – | – |
| O=C(Oc1ccco1)c1cccnc1 | > 90% | – | – |
| O=C(Oc1cncc(Cl)c1)c1cc2ccccc2s1 | > 90% | 47 | – |
| CCN(CC)c1ccc(C(=O)Oc2cncc(Cl)c2)cc1 | 64% | – | – |
| O=C(Oc1cncc(Cl)c1)c1cc2ccccc2[nH]1 | 80% | 58 | – |
| O=C(OCc1cncc(Br)c1)c1ccco1 | 67% | – | – |
| O=C(Oc1cncc(Cl)c1)c1ccc2[nH]nnc2c1 | > 90% | – | – |
| Replicase polyprotein 1a (Severe acute respiratory syndrome-related coronavirus) (from UniProt P0C6U8) | – | – | Km [7]: 0.026 µM; kcat [7]: 17 ×10⁻⁵ /s; kcat/Km [8]: 7 ×10³ /M/s |
| O=C(Oc1cncc(Cl)c1)c1ccc2[nH]cnc2c1 | 82% | 75 | inhibition [4]: 32% |
| O=C(Oc1cncc(Cl)c1)c1cc([N+](=O)[O-])[nH]n1 | 54% | 69 | IC50 [3]: 250 nM; inhibition [4]: 53% |
| Cc1ccc(C(=O)Oc2cncc(Cl)c2)cc1 | 77% | 70 | – |
| O=C(Oc1cccnc1)c1cccs1 | 83% | 21 | – |
| Cc1ccc(C(=O)Oc2cncc(Cl)c2)s1 | > 90% | – | inhibition [4]: 24% |
| Cc1cccc(C(=O)Oc2cncc(Cl)c2)c1 | 63% | 32 | – |
| O=C(Oc1cncc(Cl)c1)c1ccc(-c2cc(C(F)(F)F)ccc2Cl)o1 | 76% | 36 | – |
| O=C(Oc1cncc(Cl)c1)c1ccc2[nH]ccc2c1 | 87% | 60 | inhibition [4]: 22% |

| Compound | inhibition [1] | inhibition [2] [%] | also measured |
| --- | --- | --- | --- |
| O=C(Oc1cncc(Cl)c1)c1c[nH]c2ccccc12 | 13% | – | – |
| NS(=O)(=O)c1ccc(C(=O)Oc2cncc(Cl)c2)cc1 | 64% | 57 | inhibition [4]: < 10% |
| O=C(Nc1cccnc1)c1cccs1 | < 10% | – | – |
| O=C(Oc1cncc(Cl)c1)c1ccc(F)cc1 | > 90% | 45 | – |
| COc1ccccc1C(=O)Oc1cncc(Cl)c1 | 85% | 57 | inhibition [4]: < 10% |
| O=C(Oc1cccnc1Cl)c1cccs1 | 11% | – | – |
| Clc1cncc(OCc2ccco2)c1 | < 10% | – | – |
| O=C(Oc1cncc(Cl)c1)c1cc2ccccc2o1 | > 90% | > 90 | inhibition [4]: < 10% |
| O=C(Oc1cncc(Cl)c1)c1ccc2ccccc2c1 | 23% | 35 | – |
| O=C(Oc1cncc(Cl)c1)c1ccc(-c2ccccc2)cc1 | 39% | 23 | – |
| O=C(Oc1cncc(Cl)c1)c1c[nH]cn1 | 33% | 47 | inhibition [4]: 34% |
| COc1cccc(C(=O)Oc2cncc(Cl)c2)c1 | > 90% | 50 | – |
| O=C(Oc1cncc(Cl)c1)c1ccc(-c2ccc(Cl)cc2)o1 | > 90% | – | inhibition [4]: 36% |
| O=C(Nc1ccc(F)cn1)c1cccs1 | < 10% | – | – |
| O=C(Oc1cncc(Cl)c1)c1cc2ccccc2oc1=O | 75% | – | – |
| COc1ccc(C(=O)Oc2cncc(Cl)c2)cc1 | 85% | – | – |
| O=C(Oc1cncc(Cl)c1)C1CCCCC1 | 81% | 32 | – |
| O=C(/C=C/c1ccccc1)Oc1cncc(Cl)c1 | > 90% | 53 | – |
| O=C(Oc1cncc(Cl)c1)c1ccccc1Cl | > 90% | 67 | inhibition [4]: 23% |
| Cc1onc(-c2ccccc2)c1C(=O)Oc1cncc(Cl)c1 | < 10% | – | inhibition [4]: < 10% |
| O=C(Oc1ccncc1)c1cccs1 | < 10% | 10 | – |
| O=C(Oc1cncc(Cl)c1)c1ccco1 | > 90% | > 90 | IC50 [3]: 338 nM; inhibition [4]: 49%; Km [5]: 0.24 µM; kcat [5]: 110 ×10⁻⁵ /s; kcat/Km [6]: 4.6 ×10³ /M/s |
| Nc1ccc(C(=O)Oc2cncc(Cl)c2)cc1 | > 90% | 26 | – |
| O=C(Oc1cncc(Cl)c1)c1cnc2cc(C(F)(F)F)ccc2c1O | < 10% | – | – |
| O=C(Oc1cncc(Cl)c1)c1ccncc1 | 37% | 34 | – |
| O=C(Oc1cncc(Cl)c1)c1cscn1 | > 90% | 85 | inhibition [4]: 37% |
| O=C(Oc1cncc(Cl)c1)c1ccc2ncsc2c1 | 74% | 54 | inhibition [4]: 27% |

| Compound | inhibition [1] | inhibition [2] [%] | also measured |
| --- | --- | --- | --- |
| O=C(Oc1cncc(Cl)c1)c1ccccc1 | > 90% | > 90 | inhibition [4]: < 10% |
| O=C(Oc1cncc(Cl)c1)c1ccoc1 | > 90% | – | – |
| O=C(Oc1cncc(Cl)c1)c1ccccc1[N+](=O)[O-] | > 90% | 24 | – |
| O=C(Oc1cncc(Cl)c1)c1ccc[nH]1 | 92% | < 10 | inhibition [4]: < 10% |
| O=C(Oc1cncc(Cl)c1)c1cn[nH]c1 | 56% | 21 | – |
| O=S(=O)(Nc1cccnc1)c1cccs1 | < 10% | – | – |
| O=C(Oc1cccc(Cl)c1)c1ccco1 | 11% | – | – |
| O=C(Oc1cccc(Cl)n1)c1cccs1 | 16% | – | – |
| O=C(Oc1cncc(Cl)c1)c1ccc(-c2ccccc2[N+](=O)[O-])o1 | 37% | – | – |
| O=C(Oc1cncc(Cl)c1)c1cccc(Cl)c1 | 29% | 50 | – |
| O=C(Oc1cncc(Cl)c1)c1cc(F)c(Cl)nc1Cl | 44% | 19 | – |
| O=C(Oc1cncc(Cl)c1)c1ccc2c(c1)OCO2 | > 90% | 11 | – |
| Cc1ccc(OC(=O)c2cccs2)nc1 | 12% | – | – |
| O=C(Oc1cncc(Cl)c1)c1ccc(-c2ccc(Cl)cc2[N+](=O)[O-])o1 | 40% | – | – |
| O=C(Oc1cncc(Cl)c1)c1ccc(-c2ccccc2C(F)(F)F)o1 | > 90% | – | inhibition [4]: < 10% |
| O=C(Oc1cncc(Cl)c1)c1cnccn1 | 22% | – | – |
| COc1ccc(C(=O)Oc2cncc(Cl)c2)cc1OC | 59% | – | – |
| Cc1ccccc1C(=O)Oc1cncc(Cl)c1 | 82% | – | – |
| O=C(Nc1ccccn1)c1cccs1 | < 10% | – | – |
| O=C(/C=C/c1ccco1)Oc1cncc(Cl)c1 | 83% | > 90 | IC50 [3]: 140 nM; inhibition [4]: 43%; Km [5]: 0.18 µM; kcat [5]: 25 ×10⁻⁵ /s; kcat/Km [6]: 1.4 ×10³ /M/s |
| O=C(Nc1ccncc1)c1cccs1 | < 10% | – | – |
| CN(C)c1ccc(C(=O)Oc2cncc(Cl)c2)cc1 | > 90% | > 90 | inhibition [4]: 20% |
| CNc1ccc(C(=O)Oc2cncc(Cl)c2)cc1 | 82% | < 10 | – |
| O=C(Oc1cncc(Cl)c1)c1cccs1 | 93% and > 90% | > 90 | IC50 [9]: 500 nM; IC50 [3]: 470 nM; inhibition [4]: 50% |
| Cc1ccsc1C(=O)Oc1cncc(Cl)c1 | < 10% | – | – |
| O=C(Oc1ccc(Cl)nc1)c1cccs1 | 25% | – | – |
